In patent US6867186B2, “Cell-permeable protein inhibitors of calpain” (New England Medical Center Hospital, priority 1997, dated 2005):
pIC50: −log10 of the molar value. Where two headings read alike, the source gives them in different places.

How the values were obtained:
HIV-1 = system: HIV-1
Method: U1 is a human promonocytic cell line that is chronically infected with HIV-1 and that constitutively expresses low levels of HIV-1. […] In the present experiment, 1×10^6 cells/ml were treated with various dosages of calpastat and incubated for one hour at 37° C. After incubation, various concentrations of Tpg were added to the calpastat-treated cells and aliquoted into a 24-well plate. To observe the stimulation of HIV-1 activity by Tpg, equivalent numbers of cells were treated with Tpg alone. The cells were then incubated at 37° C. for up to four days, and supernatants from the cell culture were collected each day to measure HIV-1 activity. The viability of cells treated with both Tpg and calpastat were determined each day by Trypan-blue exclusion test. The HIV-1 activity in the collected supernatants was determined by measuring the HIV-1 p24 core antigen protein by ELISA (Dupont Medical Products, Boston, Mass.) according to the manufacturer's instructions.
In another series of experiments, U1 cells, which are latently infected with HIV-1 provirus, were plated at 10^6 cells/well in 1 ml of medium and treated with varying concentrations of either calpastat (FIG. 7E) or calpeptin (benzyloxycarbonyl-leucyl-norleucinal) (FIG. 7F) for 45 minutes before addition of thapsigargin (4 nM final concentration). […] After 48 hours of stimulation, HIV-1 p24 antigen levels were determined in 200 μl of tissue culture supernatant, using a p24 ELISA (DuPont). All assays were performed on triplicate cultures.

[1] = system: red blood cells isolated from sickle cell patients; assay: Na2S2O5-induced sickling of sickle erythrocytes; assay type: cell-based, human
Method: To examine sickling, a wet preparation of red blood cells (as opposed to a dried smear) was made by placing blood under a coverslip on a glass slide. The slide was placed under a light microscope, and the number of cells displaying sickled morphology was counted. Na2S2O5 was used to increase the rate of sickling.
When EDTA-anticoagulated peripheral blood from a sickle cell patient was preincubated with calpastat for 10 minutes prior to exposure to sodium metabisulfite (Na2S2O5), there was a significant delay (about 30 minutes) in sickling.
In a second experiment, the effect of calpastat on recovery from sickling was measured. Blood from the same patient was incubated with Na2S2O5, for two hours in a microfuge tube. The supernatant plasma was then removed from the settled erythrocytes and the erythrocytes were diluted in four volumes of saline. The washed erythrocytes were then incubated in saline, and Wright-Giemsa stained smears were made 60 minutes following the washout of Na2S2O5.

[2] = sixty minutes following Na2S2O5 washout

With “H-AAVALLPAVLLALLAPEKLGERDDTIPPEYRELLEKKTGV-OH [Calpastat]” the “decrease of mean fold viral production” value (HIV-1; 5 μM, 24 hours of Tpg stimulation) was 47%, the “decrease of mean fold viral production” value (HIV-1; 5 μM, 46 hours of Tpg stimulation) was 44% and the “decrease of mean fold viral production” value (HIV-1; 5 μM, 72 hours of Tpg stimulation) was 55%. For the same substance, the “decrease of mean fold viral production” value (HIV-1; 5 μM, 96 hours of Tpg stimulation) was 61%, the “inhibition of HIV-1 release from infected cells” value (HIV-1; 5 μM, overall) was “about 50%” and the pIC50 (HIV-1; read-out: IC50, inhibition of HIV-1 replication, FIG. 7E, U1 cells, thapsigargin 4 nM, 48 hours) was 7.30. The “final percentage of sickled cells” value ([1]; Na2S2O5) was “no detectable difference”, the delay in sickling ([1]; preincubated 10 minutes prior to Na2S2O5) was “about 30 minutes” and the “percentage of discocytes compared to S-TIPPEY-ala-treated cells” value [1, 2] was “two-fold greater”. For the same substance, the “percentage of sickled cells compared to S-TIPPEY-ala-treated cells” value [1, 2] was “two-fold lower”.
